The record followed here is patent US10662205B2, “Cyclic boronic acid ester derivatives and therapeutic uses thereof” (priority 2014, dated 2020).

Assay [1] concerns ec302 (TEM-10). In words: Aztreonam MIC of test strain. The assay is classed as cell-based.
Assay [2] has as its system KP1004 (KPC-2). In words: organism not typed. It is filed as cell-based. The following applies: read-out: Aztreonam MIC.
The subject of assay [3] is EC1010 (CMY-6). Put plainly: Aztreonam MIC of test strain. It is filed as cell-based.
The test system of assay [4] is KP1009 (CTX-M-15). Put plainly: organism not typed. The assay is classed as cell-based. The following applies: read-out: Aztreonam MIC.
Assay [5] relates to KP1005 (CTX-M-14). In words: organism not typed. It is filed as cell-based. As to conditions: read-out: Aztreonam MIC.
Assay [6] deals with KP1010 (SHV-12). In words: Aztreonam MIC of test strain. It is filed as cell-based.
Assay [7] deals with ec308 (SHV-5). Put plainly: Aztreonam MIC of test strain. It is filed as cell-based.
The test system of assay [8] is KP1004 (KPC-2). Put plainly: Biapenem MIC of test strain. The following applies: read-out: Biapenem MIC.
A further assay has as its system PAM1032/KPC-2. In words: Biapenem MIC. It is filed as cell-based. The following applies: Pseudomonas aeruginosa; PAM1032 with KPC-2 plasmid. As for the experimental part: (§1) Efflux of BLIs from Pseudomonas aeruginosa by the MexAB-OprM efflux pump was also evaluated. The plasmid expressing the gene encoding KPC-2 was introduced into two strains of P. aeruginosa, PAM1032 and PAM1154 that overexpressed or lacked MexAB-OprM, respectively. Due to expression of KPC-2 both strains became resistant to biapenem. […] Potency of BLIs to potentiate biapenem in these strains was determined. […] The ratio of MPC64 values for each BLI in PAM1032/KPC-2 (efflux proficient) and PAM1154/KPC-2 (efflux deficient) was determined to generate the Efflux Index (EI).

For a further assay, the system named is PAM1154/KPC-2. Put plainly: Biapenem MIC. The assay is classed as cell-based. The following applies: Pseudomonas aeruginosa; PAM1154 with KPC-2 plasmid. As to the method:
as §1

For a further assay, the system named is KP1086 (OXA-48). Put plainly: Biapenem MIC of test strain. As to conditions: read-out: Biapenem MIC.
The test system of assay [9] is KP1010 (SHV-12). In words: Tigemonam MIC of test strain.
The test system of assay [10] is ec308 (SHV-5). In words: Tigemonam MIC of test strain.
The test system of the next assay is ECL1002. Put plainly: Tigemonam MIC of test strain.
In assay [11] the test system is EC1010 (CMY-6). Put plainly: Tigemonam MIC of test strain.
Assay [12] deals with ec302 (TEM-10). Put plainly: Tigemonam MIC of test strain.
Assay [13] concerns KP1009 (CTX-M-15). Put plainly: Tigemonam MIC of test strain.
The test system of assay [14] is KP1005 (CTX-M-14). Put plainly: Tigemonam MIC of test strain.

The MIC is the least concentration at which growth counts as inhibited. Take `C[C@H]1[C@H](NC(=O)/C(=N\OC(C)(C)C(=O)O)c2csc(N)n2)C(=O)N1S(=O)(=O)O` [Aztreonam]: the MIC is 128 µg/mL in the assay with ec302 (TEM-10) [1]; greater than 128 µg/mL with KP1004 (KPC-2) [2]; greater than 128 µg/mL in the assay on EC1010 (CMY-6) [3]; greater than 128 µg/mL with KP1009 (CTX-M-15) [4]; greater than 128 µg/mL in the assay with KP1005 (CTX-M-14) [5]; 64 µg/mL in the assay with KP1010 (SHV-12) [6]. Moreover, the minimum inhibitory concentration (MIC) in the assay with ec308 (SHV-5) [7] is greater than 128 µg/mL.
For the compound `C[C@@H](O)[C@H]1C(=O)N2C(C(=O)[O-])=C(SC3Cn4cnc[n+]4C3)[C@H](C)[C@H]12` (stereo partly drawn) [Biapenem], the MIC in the assay on KP1004 (KPC-2) [8] was 32 µg/mL; in the assay with PAM1032/KPC-2 it was 32 µg/mL; in the assay on PAM1154/KPC-2, 32 µg/mL; in the assay on KP1086 (OXA-48), 16 µg/mL.
Consider `CC1(C)[C@H](NC(=O)/C(=N\OCC(=O)O)c2csc(N)n2)C(=O)N1OS(=O)(=O)O` [Tigemonam], for which the “Tigemonam MIC” value in the assay on KP1010 (SHV-12) [9] is greater than 64 µg/mL; in the assay on ec308 (SHV-5) [10] it was greater than 64 µg/mL; in the assay with ECL1002, 32 µg/mL; in the assay with EC1010 (CMY-6) [11], 16 µg/mL; with ec302 (TEM-10) [12] it was greater than 64 µg/mL; in the assay with KP1009 (CTX-M-15) [13], greater than 64 µg/mL. For the same compound, the “Tigemonam MIC” value in the assay on KP1005 (CTX-M-14) [14] is greater than 64 µg/mL.
